Laboratory results as given in patent US20220313651A1, “INHIBITORS OF ZIKA VIRUS INFECTION” (priority 2019, published 2022).
Read-outs that look alike come from different tables or passages of the source.

How the values were obtained:
[1] = test system: ZIKV human strain IbH 30656 (1968/Nigeria); test: Plaque reduction inhibition assay in Vero E6 cells, ZIKV IbH 30656; assay type: cell-based, Zika virus (ZIKV)
Procedure: (§1) A plaque reduction inhibition assay was carried out to measure the inhibitory activity of Z-medicaments against infections of ZIKV and DENV. […] The compound-virus mixtures were then transferred to Vero E6 cells (10^5/well) and incubated at 37° C. for 1 h.

in vitro = conditions: African green monkey
Procedure: The cytotoxicity of the Z-medicaments in Vero E6 (ZIKV target cells) was evaluated using the Cell Counting Kit-8 (CCK8).
Briefly, compounds at 2-fold serial dilutions were added to cells (2.0×10^4/well) pre-seeded in 96-well plates. The cells were cultured at 37° C. for 3 days, and incubated with CCK8 solution, followed by measurement of absorbance at 450 nm (A450 value) using microplate reader.

ZIKV EDIII protein = target: T1, ZIKV EDIII protein (Zika virus, UniProt Q32ZE1, D679E/I627V/V603I/V629A); test: SPR binding to ZIKV EDIII protein; conditions: 1:1 binding model, read-out: KD (binding affinity) to ZIKV EDIII protein
T1 construct: human Fc (C)
Procedure: Briefly, ZIKV EDIII protein or NS2B-NS3 protein were immobilized on a sensor chip (CM5) using Amine Coupling Kit. Serially diluted ST087010 was added as analytes, and HBS-EP with 10% DMSO (10 mM HEPES, 150 mM NaCl, 3 mM EDTA, 0.05% Tween-20, 10% DMSO, pH 7.4) was used as running buffer. Biacore BK evaluation software (version 1.1) was applied to analyze the data, and the curve was fitted with a 1:1 binding model.

[2] = test system: ZIKV human strain R116265 (2016/Mexico); test: Plaque reduction inhibition assay in Vero E6 cells, ZIKV R116265; assay type: cell-based, Zika virus (ZIKV); conditions: Table 7, gossypol derivatives, read-out: ZIKV strains IC50, R116265
From the text: Vero E6 and LLC-MK2 cells were maintained in Dulbecco's Modified Eagle Medium (DMEM) supplemented with 8% fetal bovine serum (FBS) and penicillin and streptomycin (P/S). C6/36 cells were maintained in Eagle's Minimal Essential Medium (EMEM) supplemented with 5% FBS and P/S. ZIKV strains, including human strains PAN2016 (2016/Panama), R116265 (2016/Mexico), PAN2015 (2015/Panama), FLR (2015/Colombia), R103451 (2015/Honduras), PRVABC59 (2015/Puerto Rico), PLCal_ZV (2013/Thailand), and IbH 30656 (1968/Nigeria), mosquito strain MEX 2-81 (2016/Mexico), and rhesus macaque strain MR 766 (1947/Uganda), were used in the studies. These ZIKV strains were cultured in Vero E6 cells, and viral titers were detected by a standard plaque-forming assay. DENV human strains, including type 1: DENV-1-V1792 (2007/Vietnam), type 2: DENV-2-V594 (2006/Puerto Rico), type 3: DENV-3-V1043 (2006/Puerto Rico), and type 4: DENV-4-PR 06-65-740 (2006/Puerto Rico), were cultured in C6/36 cells, and the viral titers were determined by plaque-forming assay as described above.
as §1, with “h. […] The cells were washed thoroughly with PBS, and overlaid with DMEM containing 1% carboxymethyl cellulose and 2% FBS, followed by in vitro culture at 37° C. for 4-5 days and then staining with 0.5% crystal violet.” for “h.”
After removal of the unbound compounds by centrifugation after addition of 3% PEG-6000, ZIKV was incubated with Vero E6 cells at 37° C. for 1 h. The cells were then washed with PBS, overlaid with DMEM containing 1% carboxymethyl cellulose and 2% FBS, and cultured at 37° C. for 4-5 days, followed by staining with 0.5% crystal violet.

T1 sequence (Q32ZE1 584-695 V603I/I627V/V629A/D679E): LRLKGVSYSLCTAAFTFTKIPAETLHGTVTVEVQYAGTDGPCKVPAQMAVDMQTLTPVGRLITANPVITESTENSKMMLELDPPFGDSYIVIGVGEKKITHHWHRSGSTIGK

C[C@@H]1CC[C@@]2(OC1)O[C@H]1[C@@H](O)[C@H]3[C@@H]4CC[C@H]5C[C@@H](O[C@@H]6O[C@H](CO)[C@H](O[C@@H]7O[C@H](CO)[C@@H](O)[C@H](O[C@@H]8OC[C@@H](O)[C@H](O)[C@H]8O)[C@H]7O[C@@H]7O[C@H](CO)[C@H](O)[C@H](O[C@@H]8O[C@H](CO)[C@@H](O)[C@H](O)[C@H]8O)[C@H]7O)[C@H](O)[C@H]6O)[C@H](O)C[C@]5(C)[C@H]4CC[C@]3(C)[C@H]1[C@@H]2C [Digitonin, digitonin]
IC50 ([1]; Zika virus, Vero C1008, Table 1, read-out: IC50 against ZIKV strain IbH 30656): 5.3 ± 0.13 µM

Cc1cc2c(C(C)C)c(O)c(O)c(C=O)c2c(O)c1-c1c(C)cc2c(C(C)C)c(O)c(O)c(C=O)c2c1O [Gossypol, gossypol]
CC50 at 3 days (in vitro): 14.49 ± 0.07 µM

Cc1cc2c(C(C)C)c(O)c(O)c(/C=N/n3c(=O)[nH][nH]c3=O)c2c(O)c1-c1c(C)cc2c(C(C)C)c(O)c(O)c(/C=N/n3c(=O)[nH][nH]c3=O)c2c1O [ST087010]
IC50 ([1]; Table 7, gossypol derivatives, read-out: ZIKV strains IC50, IbH 30656): 2.94 ± 0.08 µM | Kd (ZIKV EDIII protein): 4.95 µM | IC50 [2]: 2.91 ± 0.07 µM
